Reference: US10175256B2, “Compositions and methods utilizing lysophosphatidylcholine scaffolds” (National University Of Singapore, priority 2013, dated 2019)
Where “and” joins values, the source holds several entries; their conditions need not be identical. Equal values may be shown once.

How the values were obtained:
mouse Mfsd2a [1] = assay: Cell-based free fatty acid transport/uptake in Mfsd2a expressing HEK293 cells (mass spectrometry, TLC; Table 1); settings: MS, replicate columns; for Amount of each lipid species normalized to internal standard, mol percent in total phospholipid analysed / Amount of lipid species, mol percent in total phospholipid analysed: mock HEK293 cells
Method: (§1) FIG. 12. […] Std: free [^14C]-DHA. b. TLC analysis of phospholipids and neutral lipids of HEK293 cells transfected with mouse Mfsd2a and mutants after overnight incubation with 100 μM [^14C]-oleate. TLC protocol used was described in Methods. PC: phosphatidylcholine, PE: phosphatidylethanolamine, TAG: triglyceride, CE: cholesteryl ester.
(§2) For tissue lipid analysis, brain, liver, and heart of female WT and KO mice with age of 7-8 weeks born to HET mothers, and brains from e18.5 embryos were collected and immediately frozen with liquid nitrogen until extraction. Lipid extraction was followed by chloroform/methanol method. For cell-based free fatty acid transport, lipids from HEK293 cells expressing mouse Mfsd2a and mock controls after overnight treatment with 100 μM docosahexaenoic, arachidonic, eicosapentaenoic, alpha-linolenic, linoleic, oleic, palmitic acids in BSA complex were extracted using HIP buffer (hexane:iso-propanol 3:2, per volume) and dried under N2 gas. Phospholipid species were measured by high performance liquid chromatography (HPLC) 1100 system (Agilent) coupled with an Triple Quadrupole/Ion Trap mass spectrometer (4000Qtrap, Applied Biosystem). Levels of individual phospholipid species were analyzed as described previously and quantified using spiked internal standards that includes PC-14:0/14:0, PE-14:0/14:0, PS-14:0/14:0 (Avanti Polar Lipids, Alabaster, Ala., USA), and dioctanoyl PI (Echelon Biosciences, Inc., Salt Lake City, Utah, USA).

mouse Mfsd2a [2] = target: T1, mouse Mfsd2a (Mus musculus, UniProt Q9DA75); assay: as above; settings: replicate columns; for Amount of lipid species, mol percent in total phospholipid analysed / Amount of each lipid species normalized to internal standard, mol percent in total phospholipid analysed: Mfsd2a expressing HEK293 cells
T1 construct: expressed in transfected cells; host or cells: HEK293
T1 sequence (Q9DA75 1-534): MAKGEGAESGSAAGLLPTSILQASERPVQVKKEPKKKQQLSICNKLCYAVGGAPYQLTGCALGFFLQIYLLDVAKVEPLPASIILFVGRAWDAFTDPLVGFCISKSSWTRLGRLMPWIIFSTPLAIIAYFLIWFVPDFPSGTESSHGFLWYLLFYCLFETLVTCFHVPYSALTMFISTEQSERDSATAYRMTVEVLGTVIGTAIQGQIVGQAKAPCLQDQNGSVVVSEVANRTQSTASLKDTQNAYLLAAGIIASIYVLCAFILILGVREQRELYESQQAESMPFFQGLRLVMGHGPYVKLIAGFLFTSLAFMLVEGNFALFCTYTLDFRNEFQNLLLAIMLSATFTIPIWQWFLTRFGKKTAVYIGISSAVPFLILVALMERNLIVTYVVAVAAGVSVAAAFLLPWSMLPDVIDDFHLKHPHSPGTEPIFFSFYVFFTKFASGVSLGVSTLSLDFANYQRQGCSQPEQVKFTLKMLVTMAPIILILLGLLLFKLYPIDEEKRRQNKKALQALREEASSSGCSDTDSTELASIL
Method: as §1, §2

[3] = mock HEK293 cells incubated with 100 uM Arachidonic fatty acid/BSA complex overnight
[4] = mock HEK293 cells incubated with 100 uM Eicosapentaenoic fatty acid/BSA complex overnight
[5] = 100 uM Docosahexaenoic acid/BSA complex overnight
[6] = 100 uM Linoleic fatty acid/BSA complex overnight
[7] = 100 uM Oleic fatty acid/BSA complex overnight
[8] = Mfsd2a expressing HEK293 cells incubated with 100 uM Arachidonic fatty acid/BSA complex overnight, MS
[9] = Mfsd2a expressing HEK293 cells incubated with 100 uM Eicosapentaenoic fatty acid/BSA complex overnight, MS
[10] = 100 uM Alpha-linolenic fatty acid/BSA complex overnight
[11] = 100 uM Docosahexaenoic acid/BSA complex overnight, MS
[12] = 100 uM Linoleic fatty acid/BSA complex overnight, MS
[13] = 100 uM Oleic fatty acid/BSA complex overnight, MS
[14] = 100 uM Eicosapentaenoic acid/BSA complex overnight
[15] = 100 uM Eicosapentaenoic acid/BSA complex overnight, MS

`CCCCCCCCCCCCCCCCCC(=O)OC[C@@H](O)COP(=O)(O)O[C@@H]1[C@H](O)[C@H](O)[C@@H](O)[C@H](O)[C@H]1O` [LPI18:0] was tested, and the “Amount of each lipid species, mol percent in total phospholipid analysed” value (mouse Mfsd2a [1]; [3]) was 0.03307 mol percent and 0.03421 mol percent and 0.02228 mol percent, the “Amount of each lipid species, mol percent in total phospholipid analysed” value (mouse Mfsd2a [1]; [4]) was 0.03631 mol percent and 0.04031 mol percent and 0.03846 mol percent and the “Amount of each lipid species normalized to internal standard, mol percent in total phospholipid analysed” value (mouse Mfsd2a [1]; [5]) was 0.0354 mol percent and 0.03721 mol percent and 0.03756 mol percent. The “Amount of lipid species, mol percent in total phospholipid analysed” value (“Amount of lipid species, mol percent” below) (mouse Mfsd2a [1]; [6]) was 0.03365 mol percent and 0.03811 mol percent and 0.02692 mol percent, the “Amount of lipid species, mol percent” value (mouse Mfsd2a [1]; [7]) was 0.02649 mol percent and 0.03117 mol percent and 0.0307 mol percent and the “Amount of each lipid species, mol percent in total phospholipid analysed” value (mouse Mfsd2a [2]; [8]) was 0.02508 mol percent and 0.03053 mol percent and 0.02667 mol percent and 0.03031 mol percent. The “Amount of each lipid species, mol percent in total phospholipid analysed” value (mouse Mfsd2a [2]; [9]) was 0.02916 mol percent and 0.03081 mol percent and 0.03115 mol percent and 0.03571 mol percent, the “Amount of lipid species, mol percent” value (mouse Mfsd2a [2]; [10]) was 0.03202 mol percent and 0.03143 mol percent and 0.03738 mol percent and 0.03614 mol percent and the “Amount of each lipid species normalized to internal standard, mol percent in total phospholipid analysed” value (mouse Mfsd2a [2]; [11]) was 0.03395 mol percent and 0.02821 mol percent and 0.03136 mol percent and 0.02514 mol percent. For the same compound, the “Amount of lipid species, mol percent” value (mouse Mfsd2a [2]; [12]) was 0.03216 mol percent and 0.02682 mol percent and 0.02809 mol percent and 0.04343 mol percent and the “Amount of lipid species, mol percent” value (mouse Mfsd2a [2]; [13]) was 0.02837 mol percent and 0.02931 mol percent and 0.02721 mol percent and 0.02894 mol percent.
In the case of `CCCCCCCCCCCCCCCC/C=C\OC[C@@H](O)COP(=O)(O)OCCN` [Lyso PE18:0p], the “Amount of each lipid species normalized to internal standard, mol percent in total phospholipid analysed” value (mouse Mfsd2a [1]; [5]) is reported as 0.3791 mol percent and 0.5478 mol percent and 0.5875 mol percent, the “Amount of each lipid species normalized to internal standard, mol percent in total phospholipid analysed” value (mouse Mfsd2a [1]; [14]) is reported as 0.7711 mol percent and 0.3952 mol percent and 0.4625 mol percent and the “Amount of lipid species, mol percent” value (mouse Mfsd2a [1]; [7]) is reported as 0.336 mol percent and 0.5628 mol percent and 0.5097 mol percent. For the same compound, the “Amount of lipid species, mol percent” value (mouse Mfsd2a [2]; [10]) was 0.5329 mol percent and 0.4653 mol percent and 0.37 mol percent and 0.5715 mol percent, the “Amount of lipid species, mol percent” value (mouse Mfsd2a [2]; [6]) was 0.3438 mol percent and 0.3054 mol percent and 0.2525 mol percent and 0.1986 mol percent and the “Amount of each lipid species normalized to internal standard, mol percent in total phospholipid analysed” value (mouse Mfsd2a [2]; [11]) was 0.3998 mol percent and 0.8078 mol percent and 0.4971 mol percent and 0.5526 mol percent. The “Amount of each lipid species normalized to internal standard, mol percent in total phospholipid analysed” value (mouse Mfsd2a [2]; [15]) was 0.4834 mol percent and 0.7431 mol percent and 0.4828 mol percent and 0.4728 mol percent and the “Amount of lipid species, mol percent” value (mouse Mfsd2a [2]; [13]) was 0.4754 mol percent and 0.4091 mol percent and 0.4604 mol percent and 0.341 mol percent.
For `CCCCCCCCCCCCCCCC(=O)OC[C@@H](O)COP(=O)(O)OC1[C@H](O)[C@H](O)C(O)[C@H](O)[C@H]1O` (some centres unmarked) [LPI16:0], the “Amount of each lipid species, mol percent in total phospholipid analysed” value (mouse Mfsd2a [1]; [4]) was 0.004685 mol percent and 0.004731 mol percent and 0.003589 mol percent, the “Amount of lipid species, mol percent” value (mouse Mfsd2a [1]; [6]) was 0.003029 mol percent and 0.004291 mol percent and 0.00407 mol percent and the “Amount of lipid species, mol percent” value (mouse Mfsd2a [1]; [7]) was 0.003369 mol percent and 0.003584 mol percent and 0.002627 mol percent. For the same compound, the “Amount of each lipid species, mol percent in total phospholipid analysed” value (mouse Mfsd2a [2]; [9]) was 0.00427 mol percent and 0.002996 mol percent and 0.00331 mol percent and 0.004891 mol percent, the “Amount of lipid species, mol percent” value (mouse Mfsd2a [2]; [10]) was 0.002614 mol percent and 0.002235 mol percent and 0.003861 mol percent and 0.003103 mol percent and the “Amount of lipid species, mol percent” value (mouse Mfsd2a [2]; [12]) was 0.002421 mol percent and 0.002583 mol percent and 0.004097 mol percent and 0.003665 mol percent. The “Amount of lipid species, mol percent” value (mouse Mfsd2a [2]; [13]) was 0.003305 mol percent and 0.002531 mol percent and 0.002415 mol percent and 0.003238 mol percent.
For `CCCCCCCCCCCCCCCC/C=C\OC[C@@H](O)COP(=O)(O)OCCN` [LysoPE18:0p], the “Amount of each lipid species, mol percent in total phospholipid analysed” value (mouse Mfsd2a [1]; [3]) was 0.6519 mol percent and 0.416 mol percent and 0.215 mol percent and the “Amount of each lipid species, mol percent in total phospholipid analysed” value (mouse Mfsd2a [2]; [8]) was 0.5873 mol percent and 0.5865 mol percent and 0.323 mol percent and 0.5348 mol percent.
`CCCCCCCCCCCCCC/C=C\OC[C@@H](O)COP(=O)(O)OCCN` [Lyso PE16:0p] was tested, and the “Amount of each lipid species normalized to internal standard, mol percent in total phospholipid analysed” value (mouse Mfsd2a [1]; [5]) was 2.843 mol percent and 2.772 mol percent and 2.42 mol percent, the “Amount of each lipid species normalized to internal standard, mol percent in total phospholipid analysed” value (mouse Mfsd2a [1]; [14]) was 3.984 mol percent and 3.09 mol percent and 2.343 mol percent and the “Amount of lipid species, mol percent” value (mouse Mfsd2a [1]; [7]) was 3.062 mol percent and 2.456 mol percent and 2.052 mol percent. For the same compound, the “Amount of lipid species, mol percent” value (mouse Mfsd2a [2]; [10]) was 3.296 mol percent and 3.844 mol percent and 2.809 mol percent and 2.876 mol percent, the “Amount of lipid species, mol percent” value (mouse Mfsd2a [2]; [6]) was 1.997 mol percent and 3.121 mol percent and 2.462 mol percent and 2.098 mol percent and the “Amount of each lipid species normalized to internal standard, mol percent in total phospholipid analysed” value (mouse Mfsd2a [2]; [11]) was 3.182 mol percent and 3.1158 mol percent and 3.231 mol percent and 3.697 mol percent. The “Amount of each lipid species normalized to internal standard, mol percent in total phospholipid analysed” value (mouse Mfsd2a [2]; [15]) was 2.495 mol percent and 3.134 mol percent and 3.766 mol percent and 2.379 mol percent and the “Amount of lipid species, mol percent” value (mouse Mfsd2a [2]; [13]) was 2.254 mol percent and 2.591 mol percent and 2.664 mol percent and 2.476 mol percent.
In the case of `CCCCCCCCCCCCCCCCCC/C=C\OC[C@@H](O)COP(=O)(O)OCCN` [LysoPE20:0p], the “Amount of each lipid species, mol percent in total phospholipid analysed” value (mouse Mfsd2a [1]; [3]) is reported as 0.2922 mol percent and 0.183 mol percent and 0.1158 mol percent and the “Amount of each lipid species, mol percent in total phospholipid analysed” value (mouse Mfsd2a [2]; [8]) is reported as 0.3303 mol percent and 0.2723 mol percent and 0.1846 mol percent and 0.2172 mol percent.
`CCCCCCCCCCCCCCCC(=O)OC[C@@H](O)COP(=O)(O)OCCN` [LysoPE16:0] was tested, and the “Amount of each lipid species, mol percent in total phospholipid analysed” value (mouse Mfsd2a [1]; [3]) was 0.08991 mol percent and 0.08319 mol percent and 0.0827 mol percent, the “Amount of each lipid species normalized to internal standard, mol percent in total phospholipid analysed” value (mouse Mfsd2a [1]; [5]) was 0.06318 mol percent and 0.083 mol percent and 0.06994 mol percent and the “Amount of each lipid species normalized to internal standard, mol percent in total phospholipid analysed” value (mouse Mfsd2a [1]; [14]) was 0.06426 mol percent and 0.1796 mol percent and 0.1079 mol percent. For the same compound, the “Amount of lipid species, mol percent” value (mouse Mfsd2a [1]; [7]) was 0.056 mol percent and 0.03411 mol percent and 0.06706 mol percent, the “Amount of each lipid species, mol percent in total phospholipid analysed” value (mouse Mfsd2a [2]; [8]) was 0.1468 mol percent and 0.08379 mol percent and 0.1077 mol percent and 0.1337 mol percent and the “Amount of lipid species, mol percent” value (mouse Mfsd2a [2]; [10]) was 0.1381 mol percent and 0.2428 mol percent and 0.2355 mol percent and 0.07619 mol percent. For the same compound, the “Amount of lipid species, mol percent” value (mouse Mfsd2a [2]; [6]) was 0.03967 mol percent and 0.1018 mol percent and 0.06313 mol percent and 0.02483 mol percent, the “Amount of each lipid species normalized to internal standard, mol percent in total phospholipid analysed” value (mouse Mfsd2a [2]; [11]) was 0.08329 mol percent and 0.03847 mol percent and 0.07102 mol percent and 0.05717 mol percent and the “Amount of each lipid species normalized to internal standard, mol percent in total phospholipid analysed” value (mouse Mfsd2a [2]; [15]) was 0.09357 mol percent and 0.09693 mol percent and 0.09655 mol percent and 0.07626 mol percent. For the same compound, the “Amount of lipid species, mol percent” value (mouse Mfsd2a [2]; [13]) was 0.04601 mol percent and 0.01705 mol percent and 0.1151 mol percent and 0.08973 mol percent.
With `CCCCCCCCCCCCCCCC(=O)OC[C@@H](O)COP(=O)(O)O[C@@H]1[C@H](O)[C@H](O)[C@@H](O)[C@H](O)[C@H]1O` [LP116:0] the “Amount of each lipid species normalized to internal standard, mol percent in total phospholipid analysed” value (mouse Mfsd2a [1]; [5]) was 0.003621 mol percent and 0.004425 mol percent and 0.003813 mol percent and the “Amount of each lipid species normalized to internal standard, mol percent in total phospholipid analysed” value (mouse Mfsd2a [2]; [11]) was 0.003896 mol percent and 0.00362 mol percent and 0.004663 mol percent and 0.002596 mol percent.
